Patent US8722616B2, “Anti-HIV peptides and methods of use thereof” (priority 2009, dated 2014)
No end group written: not given here.

Legend:
[1] = system: HIV-1IIIB; assay: microbe, parasite or virus in culture
Experimental: (§1) Anti-HIV cytopathic effect inhibition assays were conducted as described (Buckheit et al. (1995) Antimicrob. Agents Chemother., 39:2718-2727). In brief, serially diluted peptides were added to a 96-well round bottom microtiter plate in triplicate. CEM-SS cells at a concentration of 2.5×10^3 cells per well and HIV-1IIIB at the appropriate pre-determined titer were sequentially added to the microtiter plate. The cultures were incubated at 5% CO2/37° C. for six days. Following the incubation, the microtiter plates were stained with XTT tetrazolium dye to evaluate the efficacy and toxicity of the test compound(s).
as §1, with “Cytopathic Effect (CPE) Inhibition Assay: The CPE assay was performed” for “Anti-HIV cytopathic effect inhibition assays were conducted”, “as previously” for “as”, “Briefly,” for “In brief,”, “compound was” for “peptides were”

[2] = system: CEM-SS cells; assay: Cytotoxicity in the CPE assay (XTT, 50% reduction in cell viability)
Experimental: as §1
as §1, with “Cytopathic Effect (CPE) Inhibition Assay: The CPE assay was performed” for “Anti-HIV cytopathic effect inhibition assays were conducted”, “as previously” for “as”, “Briefly,” for “In brief,”, “compound was” for “peptides were”

[3] = in vitro; settings: human
Experimental: as §1
as §1, with “Cytopathic Effect (CPE) Inhibition Assay: The CPE assay was performed” for “Anti-HIV cytopathic effect inhibition assays were conducted”, “as previously” for “as”, “Briefly,” for “In brief,”, “compound was” for “peptides were”

[4] = Table 1, CEM-SS cells, HIV-1IIIB, six days, 50% inhibition of virus replication
[5] = read-out: TC50, Table 1, CEM-SS cells, six days, 50% reduction in cell viability
[6] = Table 5, BMAP-27-derived peptides, CEM-SS cells
[7] = >100 μg/ml defined as HIV inactive
[8] = read-out: TC50, Table 3, CEM-SS cells
[9] = Table 4, LL-37-derived peptides, CEM-SS cells

GMASKAGAIAGKIAKVALKAL-NH2 [PGLa, reference compound]
EC50 [1, 4]: > 50.8 µM | CC50 [2, 5]: > 50.8 µM

GNNRPVYIPQPRPPHPRI [Apidaecin IA, reference compound]
EC50 [1, 4]: > 47.4 µM | CC50 [2, 5]: > 47.4 µM

GRFKRFRKKFKKLFK-NH2 [BMAP-15]
EC50 [1, 6]: > 49.6 µM | CC50 at 6 days [3]: > 49.6 µM

GRFKRFRKKFKKLFKKIS-NH2 [BMAP-18]
EC50 [1, 7]: 0.8 µg/mL | EC50 [1, 6]: 0.35 µM | CC50 at 6 days [3]: 8.45 µM

GRFKRFRKPFKKLFKKIS-NH2 [BMAP-18P9]
EC50 [1, 6]: 3.2 µM | CC50 at 6 days [3]: 18.9 µM

GRFKRIRKKLKKLFKKIS-NH2 [BMAP-18I6L10]
EC50 [1, 6]: > 44 µM | CC50 at 6 days [3]: 2.79 µM

GWFDIIKKIASEL [Peptide B4]
EC50 ([1]; 1IIIB): 10.7 µM | CC50 [2]: 38.9 µM

GWFDVVKHIAKRF-NH2 [Peptide D70] [listing 1 of 2 here]
EC50 [1, 4]: 2.99 µM

GWFDVVKHIAKRF-NH2 [Peptide D70] [listing 2 of 2 here]
CC50 [2, 5]: 10.6 µM

GWLKKIESIIDAF [Peptide B8]
EC50 ([1]; Table 2, sequence shuffling, CEM-S cells): 29.5 µM | CC50 ([2]; read-out: TC50, Table 2, CEM-S cells): > 65.8 µM

H-GFKDLLKGAAKALVKTVLF-NH2 [Ascaphin-8, reference compound]
CC50 [2]: 2.9 µM

H-GLADFLNKAVGKVVDFVKS-NH2 [Desertcolin 1, reference compound]
EC50 ([1]; 1IIIB): > 49.9 µM | CC50 [2]: > 49.9 µM

H-GLLGLLGSVVSHVVPAIVGHF-NH2 [Maculatin 1.3, reference compound]
CC50 [2]: 8.02 µM

HVDKKVADKVLLLKQLRIMRLLTRL [Spinigerin, reference compound]
toxicity to human cells at [2]: ≥ 25 µM | CC50 ([2]; human, 6 days): > 33.3 µM

IKWKKLLRAAKRIL-NH2 [Peptide D74]
EC50 [1, 4]: > 57.6 µM | CC50 [2, 5]: 1.3 µM

ILGPVLGLVSDTLDDVLGIL [Maximin H5, reference compound]
EC50 ([1]; Table 3, CEM-SS cells): > 49.4 µM | CC50 [2, 8]: > 49.4 µM

ILGPVLGLVSRTLRRVLGIL [Maximin H5r3]
EC50 ([1]; Table 3, CEM-SS cells): 2.2 µM | CC50 [2, 8]: 8.7 µM

INLKAIAALAKKLL [Mastoparan M, reference compound]
EC50 [1, 4]: > 67.6 µM | CC50 [2, 5]: > 67.6 µM

KGRGKQGGKVRAKAKTRSS [Parasin I, reference compound]
EC50 [1, 4]: > 50 µM | CC50 [2, 5]: > 50 µM

KRIVQRIKDFLR-NH2 [KR-12]
EC50 [1, 9]: > 63.5 µM | CC50 at 6 days [3]: > 63.5 µM

KRIVQRIKDFLRNLVPRTES [KR-20]
CC50 at 6 days [3]: > 40.5 µM

LLGDLLRKSKEKIGKEFKRIVQR-NH2 [LL-23]
CC50 at 6 days [3]: > 35.4 µM

LLGDLLRKSKEKIGKEFKRIVQRIKDFLRNLVPRTES [LL-37, reference compound]
EC50 [1, 7]: 7.3 µg/mL | EC50 [1, 9]: 1.6 µM | CC50 at 6 days [3]: 18.4 µM

LLKELWTKIKGAGKAVLGKIKGLL [Ponericin L2, reference compound]
EC50 [1, 4]: 1.4 µM | CC50 [2, 5]: 24.7 µM

NLVSGLIEARKYLEQLHRKLKNRKV [Peptide D88] [listing 1 of 2 here]
EC50 [1, 4]: > 33.3 µM

NLVSGLIEARKYLEQLHRKLKNRKV [Peptide D88] [listing 2 of 2 here]
CC50 [2, 5]: > 33.3 µM

RPKHPIKHQGLPQEVLNENLLRF [Isracidin, reference compound]
EC50 [1, 4]: > 36.2 µM | CC50 [2, 5]: > 36.2 µM

RQRVEELSKFSKKGAAARRRK [Misgurin, reference compound]
EC50 [1, 4]: > 40 µM | CC50 [2, 5]: > 40 µM

SLSRFLRFLKIVYRRAF-NH2 [Peptide D98]
EC50 [1, 4]: 0.83 µM | CC50 [2, 5]: 8.6 µM

SWKSMAKKLKEYMEKLKQRA [Latarcin 3a, reference compound]
EC50 [1, 7]: ~100 µg/mL

VDKPDYRPRPRPPNM [Metalnikowin I, reference compound]
EC50 [1, 4]: > 54.4 µM | CC50 [2, 5]: > 54.4 µM
